The target of assay [1] is T1, GKRP (Glucokinase Regulatory Protein) with human His-hepatic GK (Homo sapiens, UniProt Q14397).
T1 sequence (Q14397 1-625): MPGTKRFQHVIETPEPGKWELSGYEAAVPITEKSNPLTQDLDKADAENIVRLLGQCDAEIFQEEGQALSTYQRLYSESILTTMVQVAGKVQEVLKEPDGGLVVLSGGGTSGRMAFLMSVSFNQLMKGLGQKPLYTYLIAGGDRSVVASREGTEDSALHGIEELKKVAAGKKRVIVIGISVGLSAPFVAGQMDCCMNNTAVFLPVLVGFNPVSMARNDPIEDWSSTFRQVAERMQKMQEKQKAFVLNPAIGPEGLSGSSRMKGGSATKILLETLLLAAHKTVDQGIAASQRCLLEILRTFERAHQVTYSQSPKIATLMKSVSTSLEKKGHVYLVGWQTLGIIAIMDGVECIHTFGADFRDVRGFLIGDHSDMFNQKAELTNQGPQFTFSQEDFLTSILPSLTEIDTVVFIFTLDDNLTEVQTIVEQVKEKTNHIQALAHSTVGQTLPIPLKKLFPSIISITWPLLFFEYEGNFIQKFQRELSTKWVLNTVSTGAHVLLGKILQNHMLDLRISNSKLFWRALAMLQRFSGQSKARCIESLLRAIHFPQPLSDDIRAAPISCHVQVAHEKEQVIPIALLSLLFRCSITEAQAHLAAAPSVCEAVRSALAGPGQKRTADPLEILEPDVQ
The experiment in a line: biochemical. An outline of the steps: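 Product formation, 13C-glucose-6-phosphate from 13C-glucose, was measured directly by LC MS/MS after acetonitrile quench. The GK reaction ran 30 min at room temperature in Tris pH 7.5 buffer with 4 mM MgCl2 and 6% DMSO. The 5× enzyme stock was 30 nM His-tagged human hepatic glucokinase.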

Assay [2] has as its target T2, interaction between glucokinase (GK) and glucokinase regulatory protein (GKRP) (Homo sapiens, UniProt Q14397).
T2 sequence (Q14397 1-625): T1 sequence (Q14397 1-625)
The experiment in a line: biochemical. Type of assay: binding. In a few lines:
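Measures direct GK–GKRP binding in 20 mM Tris pH 7.5 containing 1 μM sorbitol-6-phosphate, 0.05% BSA and 1 mM DTT. Compound and avi-tagged GKRP sit 20 min at room temperature before GK-fluorescein addition (6 nM in the added buffer); read after 2 h dark incubation at room temperature.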

Where [3] appears, read: 13C-glucose-6-phosphate formation, 280 nM GKRP (10×), 30 nM GK (5×), read-out: GK-GKRP EC50 (LC MS/MS-2).
Setting [4] is: avi-tagged GKRP, GK-fluorescein, AlphaScreen beads, read-out: GK-GKRP IC50 (Binding).

pEC50, pIC50: −log10 of the molar value. Read-outs that look alike come from different tables or passages of the source.

`CC(=O)N(C[C@H]1CN(S(=O)(=O)c2cccs2)CCN1c1ccc(C(C)(O)C(F)(F)F)cc1)c1ccccc1` (mixture of isomers) [Example 224, N-phenyl-N-(((2S)-4-(2-thiophenylsulfonyl)-1-(4-(2,2,2-trifluoro-1-hydroxy-1-methylethyl)phenyl)-2-piperazinyl)methyl)acetamide]: in assay [1] (setting [3]), the pEC50 was 7.57. In addition, the pIC50 in assay [2] (setting [4]) was 8.10.
For `CC(O)(c1ccc(N2CCN(S(=O)(=O)c3cccs3)C[C@@H]2CNS(=O)(=O)c2cccnc2)cc1)C(F)(F)F` (mixture of isomers) [Example 192, N-(((2S)-4-(2-thiophenylsulfonyl)-1-(4-(2,2,2-trifluoro-1-hydroxy-1-methylethyl)phenyl)-2-piperazinyl)methyl)-3-pyridinesulfonamide], in that order: 6.90 and 6.99.
For `C[C@H]1COCCN1C[C@H]1CN(S(=O)(=O)c2nccs2)CCN1c1ccc(C(C)(O)C(F)(F)F)cc1` (mixture of isomers) [Example 102, 1,1,1-trifluoro-2-(4-((2S)-2-(((3S)-3-methyl-4-morpholinyl)methyl)-4-(1,3-thiazol-2-ylsulfonyl)-1-piperazinyl)phenyl)-2-propanol], in that order: 6.86 and 6.87.
For `CC(O)(c1ccc(N2CCN(S(=O)(=O)c3cccs3)C[C@@H]2CN(CC2CC2)S(C)(=O)=O)cc1)C(F)(F)F` (mixture of isomers) [Example 202, N-(cyclopropylmethyl)-N-(((2S)-4-(2-thiophenylsulfonyl)-1-(4-(2,2,2-trifluoro-1-hydroxy-1-methylethyl)phenyl)-2-piperazinyl)methyl)methanesulfonamide], in that order: 7.41 and 7.59.
`CC(O)(c1ccc(N2CCN(S(=O)(=O)c3cccs3)C[C@@H]2CN2CCS(=O)(=O)CC2)cc1)C(F)(F)F` (mixture of isomers) [Example 85, 2-(4-((2S)-2-((1,1-dioxido-4-thiomorpholinyl)methyl)-4-(2-thiophenylsulfonyl)-1-piperazinyl)phenyl)-1,1,1-trifluoro-2-propanol]: in assay [1] (setting [3]), the pEC50 was 6.32. Besides, the pIC50 in assay [2] (setting [4]) was 6.46.
Taken in the same sequence, the figures for `C[C@H]1CN(S(=O)(=O)c2ccccc2N)CCN1c1ccc(C(O)(C(F)(F)F)C(F)(F)F)cc1` [Example 168, 2-(4-((2S)-4-((2-aminophenyl)sulfonyl)-2-methyl-1-piperazinyl)phenyl)-1,1,1,3,3,3-hexafluoro-2-propanol] were 6.27 and 6.18.
Consider `CC(O)(c1ccc(N2CCN(S(=O)(=O)c3cccs3)C[C@@H]2CN(c2ccccc2)S(C)(=O)=O)cc1)C(F)(F)F` (mixture of isomers) [Example 204, N-phenyl-N-(((2R)-4-(2-thiophenylsulfonyl)-1-(4-(2,2,2-trifluoro-1-hydroxy-1-methylethyl)phenyl)-2-piperazinyl)methyl)methanesulfonamide], for which the pEC50 in assay [1] (setting [3]) was 7.49. For the same molecule, the negative-log IC50 (pIC50) in assay [2] (setting [4]) is 8.40.
On to `C[C@H]1CN(S(=O)(=O)c2ccc(N)s2)CCN1c1ncc(C(C)(O)C(F)(F)F)cn1` (mixture of isomers) [Example 137, 2-(2-((2S)-4-((5-amino-2-thiophenyl)sulfonyl)-2-methyl-1-piperazinyl)-5-pyrimidinyl)-1,1,1-trifluoro-2-propanol], for which the pEC50 in assay [1] (GK-GKRP EC50 (LC MS/MS-2)) is 6.18. Moreover, the pIC50 in assay [2] (GK-GKRP IC50 (Binding)) is 6.55.
`CC(O)C#Cc1cc(C(O)(C(F)(F)F)C(F)(F)F)ccc1N1CCN(S(=O)(=O)c2cccs2)CC1` (racemic) [Example 151, 4-(2-(4-(2-thiophenylsulfonyl)-1-piperazinyl)-5-(2,2,2-trifluoro-1-hydroxy-1-(trifluoromethyl)ethyl)phenyl)-3-butyn-2-ol]: the pEC50 in assay [1] (setting [3]) was 6.00. Further, the pIC50 in assay [2] (setting [4]) was 6.40.
Take `CCC(C#Cc1cc(C(O)(C(F)(F)F)C(F)(F)F)ccc1N1CCN(S(=O)(=O)c2cccs2)CC1)OC` (racemic) [Example 155, 1,1,1,3,3,3-hexafluoro-2-(3-(3-methoxy-1-pentyn-1-yl)-4-(4-(2-thiophenylsulfonyl)-1-piperazinyl)phenyl)-2-propanol]: the pEC50 in assay [1] (setting [3]) was 6.95. Moreover, in assay [2] (setting [4]), the pIC50 is 6.84.
Taken in the same sequence, the figures for `Cn1cnc(COC[C@H]2CN(S(=O)(=O)c3cccs3)CCN2c2ccc(C(C)(O)C(F)(F)F)cc2)c1` (single isomer, unassigned) [Example 119 Peak #1] were 6.63 and 6.01.
For `O=S(=O)(c1cccs1)N1CCN(c2ncc(C(O)(C(F)(F)F)C(F)(F)F)cn2)[C@@H](CN2C3COCC2C(O)C3)C1` (single isomer, unassigned) [Example 79 Peak #1], the pEC50 in assay [1] (setting [3]) was 7.30. Besides, in assay [2] (setting [4]), the negative-log IC50 (pIC50) is 7.31.
Molecule `CC(O)(c1ccc(N2CCN(S(=O)(=O)c3cccs3)C[C@@H]2CN2C3CCCC2CC(O)C3)cc1)C(F)(F)F` (mixture of isomers) [Example 141, 9-(((2S)-4-(2-thiophenylsulfonyl)-1-(4-(2,2,2-trifluoro-1-hydroxy-1-methylethyl)phenyl)-2-piperazinyl)methyl)-9-azabicyclo[3.3.1]nonan-3-ol (endo)] had a pEC50 in assay [1] (GK-GKRP EC50 (LC MS/MS-2), 13C-glucose-6-phosphate formation, 280 nM GKRP (10×), 30 nM GK (5×)) of 7.59. In addition, the pIC50 in assay [2] (setting [4]) was 7.96.
As to `Nc1ccc(S(=O)(=O)N2CCN(c3ncc(C(O)(C(F)(F)F)C(F)(F)F)cn3)[C@@H](CN3C4COCC3CC(=O)C4)C2)cn1` [Example 99 nonan-7-one, 9-(((2S)-4-((6-amino-3-pyridinyl)sulfonyl)-1-(5-(2,2,2-trifluoro-1-hydroxy-1-(trifluoromethyl)ethyl)-2-pyrimidinyl)-2-piperazinyl)methyl)-3-oxa-9-azabicyclo[3.3.1]nonan-7-one], the pEC50 in assay [1] (setting [3]) is 7.01. For the same molecule, in assay [2] (setting [4]), the pIC50 is 7.12.
With `CC(O)(c1ccc(N2CCN(S(=O)(=O)c3cccs3)C[C@@H]2CN2CCOCC2c2ccc(F)cc2)cc1)C(F)(F)F` (single isomer, unassigned) [Example 115 Peak #1], in assay [1] (setting [3]), the pEC50 was 6.51. Further, the pIC50 in assay [2] (setting [4]) is 6.23.
For `CC(C)N(C[C@H]1CN(S(=O)(=O)c2cccs2)CCN1c1ccc(C(C)(O)C(F)(F)F)cc1)S(C)(=O)=O` (mixture of isomers) [Example 195, N-(1-methylethyl)-N-(((2R)-4-(2-thiophenylsulfonyl)-1-(4-(2,2,2-trifluoro-1-hydroxy-1-methylethyl)phenyl)-2-piperazinyl)methyl)methanesulfonamide], in that order: 7.24 and 7.55.
For `Nc1ccc(S(=O)(=O)N2CCN(c3ncc(C(O)(C(F)(F)F)C(F)(F)F)cn3)[C@@H](CC3CCOCC3)C2)cn1` [Example 130, 2-(2-((2S)-4-((6-amino-3-pyridinyl)sulfonyl)-2-(tetrahydro-2H-pyran-4-ylmethyl)-1-piperazinyl)-5-pyrimidinyl)-1,1,1,3,3,3-hexafluoro-2-propanol], in that order: 6.87 and 7.21.
With `CC(O)(c1ccc(N2CCN(S(=O)(=O)c3cccs3)C[C@@H]2CN2CC3(COC3)C2)cc1)C(F)(F)F` (mixture of isomers) [Example 84, 1,1,1-trifluoro-2-(4-((2S)-2-(2-oxa-6-azaspiro[3.3]hept-6-ylmethyl)-4-(2-thiophenylsulfonyl)-1-piperazinyl)phenyl)-2-propanol], in assay [1] (GK-GKRP EC50 (LC MS/MS-2)), the pEC50 is 6.18. Besides, in assay [2] (setting [4]), the pIC50 is 6.18.

In general, pIC50 refers to the IC50 on a negative log10 scale, so that one unit is a factor of ten.
